# Data reported in paper PMC3744471, “Mitochondria Are the Target Organelle of Differentiation-Inducing Factor-3, an Anti-Tumor Agent Isolated from Dictyostelium Discoideum” (PLoS ONE, 2013).
# Legend:
# HeLa cells = assay: Cell growth assay (Alamar blue), HeLa; assay type: cell-based, human; details: 3 days; for Effect on cell growth (relative cell number): HeLa; for IC50: Homo sapiens, 72 h, HeLa cells, Alamar blue
# Experimental: HeLa, LM8, and 3T3-L1 cells were cultured for 3 days at 2.5–5×10^3 cells/well in 12-well plates with each well filled with 1 ml of DMEM-FBS (for HeLa and 3T3-L1) or MEM-α-FBS (for LM8) together with drugs at various concentrations. Then, the incubation media were discarded and the cells were washed with 1 ml of PBS(–) (20 mM phosphate buffered saline, pH 7.4) and incubated with 1 ml of fresh DMEM-FBS (HeLa and 3T3-L1) or MEM-α-FBS (LM8) containing 5% (v/v) of Alamar blue (a cell number indicator; Wako Pure Chemical Industries, Osaka, Japan) until the color changed. […] Relative cell numbers were determined for each concentration for each drug and the IC50 was determined from the dose-response curves.
# LM8 cells = assay: Cell growth assay (Alamar blue), LM8; assay type: cell-based, mouse; details: for Effect on cell growth in LM8 cells: BODIPY-DIF-3 5–20 µM, CCCP 2–10 µM, 4 days; for IC50: Mus musculus, 72 h, LM8 cells, 3 days, Alamar blue
# Experimental: (§1) HeLa, LM8, and 3T3-L1 cells were cultured for 3 days at 2.5–5×10^3 cells/well in 12-well plates with each well filled with 1 ml of DMEM-FBS (for HeLa and 3T3-L1) or MEM-α-FBS (for LM8) together with drugs at various concentrations. Then, the incubation media were discarded and the cells were washed with 1 ml of PBS(–) (20 mM phosphate buffered saline, pH 7.4) and incubated with 1 ml of fresh DMEM-FBS (HeLa and 3T3-L1) or MEM-α-FBS (LM8) containing 5% (v/v) of Alamar blue (a cell number indicator; Wako Pure Chemical Industries, Osaka, Japan) until the color changed. The relative cell number was assessed by measuring absorbance at 570 nm (reference at 595 nm) as described previously, [14]; DIF-related compounds and BODIPY-conjugated compounds hardly disturbed the cell number assessment with Alamar blue (data not shown), probably because the additive compounds were washed out when cell number was assessed. For determination of the 50% inhibitory concentration (IC50) of each drug, the cells were cultured for 3 days in the presence of each drug at various concentrations. Relative cell numbers were determined for each concentration for each drug and the IC50 was determined from the dose-response curves.
# (§2) Supplementary file pone.0072118.s001.tif: Figure S1 Effects of BODIPY-DIF-3 and CCCP on cell growth, and cellular localization of BODIPY-DIF-3 in LM8 cells. (A) Cells were incubated for 4 days with 5–20 µM of BODIPY-DIF-3 (closed circles) or 2–10 µM of CCCP (closed triangles), and relative cell number was assessed by the use of Alamar blue. Data are the mean values and SD (bars) of three independent experiments. (B) Cells were incubated for 0.5 h or 3 days with 20 µM of BODIPY-DIF-3, washed free of the additive, and observed microscopically. (C) Cells were incubated for 0.5 h with BODIPY-DIF-3 (20 µM), Hoechst (0.1 µg/ml), and MitoTracker (0.1 µM), washed free of the additives, and observed by using a high-magnification fluorescence microscope. (D) Cells were incubated for 3 days with BODIPY-DIF-3 (20 µM) and then for 0.5 h with Hoechst (0.1 µg/ml) and MitoTracker (0.1 µM). Cells were washed free of the additives and observed by using a high-magnification fluorescence microscope. (TIF) Click here for additional data file.
# 3T3-L1 cells = assay: Cell growth assay (Alamar blue), 3T3-L1; assay type: cell-based, mouse; details: for Effect on cell growth in 3T3-L1 cells: BODIPY-DIF-3 5–20 µM, CCCP 2–10 µM, 4 days; for IC50: Mus musculus, 72 h, 3T3-L1 cells, 3 days, Alamar blue
# Experimental: as §1
# as §2, with “pone.0072118.s002.tif:” for “pone.0072118.s001.tif:”, “S2” for “S1”, “3T3-L1” for “LM8”
# [1] = system: mitochondria in HeLa cells; assay: Mitochondrial morphology by fluorescence microscopy; assay type: cell-based, human; details: BODIPY-DIF-3 20 µM 1 day, Bu-DIF-3 5 µM, CCCP 10 µM 3 days
# Experimental: For high magnification multi-color imaging, cells were incubated for the appropriate times with 2 ml of DMEM-FBS (HeLa and 3T3-L1) or MEM-α-FBS (LM8) containing various compounds in 35-mm plastic dishes (tissue culture treated µ-Dish; ibidi, Martinsried, Germany). The cells were washed twice with 2 ml of PBS(–), submerged in 2 ml of Hepes buffer (pH 7.4), and observed at room temperature with a Keyence BZ-9000 fluorescence microscope (Osaka, Japan) equipped with an oil immersion 100× lens (CFI Plan Apo VC100XH) and multi-filters that can distinguish four fluorescent probes simultaneously. Original digitized images of z-stack sections were taken at 0.4- µm intervals, which were then treated (haze-reduced) with the Keyence BZ analyzer software (for deconvolution fluorescence imaging), and compiled into 3D images; when 3D images were constructed, nonlinear adjustment was performed to obtain clear (high contrast) images without haze. All color images are presented in pseudo colors.
SMILES,Effect on cell growth (relative cell number) (HeLa cells; 5–20 µM (Bu-BODIPY up to 20 µM)),IC50 (HeLa cells) [µM],Effect on cell growth in LM8 cells (LM8 cells),IC50 (LM8 cells) [µM],Effect on cell growth in 3T3-L1 cells (3T3-L1 cells),IC50 (3T3-L1 cells) [µM],Mitochondrial swelling [1],Effect on cell growth (relative cell number) (HeLa cells; 20 µM),"Effect on cell growth (relative cell number) (HeLa cells; CCCP 10 µM, azide 0.01%)"
CCCCCC(=O)c1c(O)cc(OCCCCNC(=O)CCC2=[N+]3C(=Cc4c(C)cc(C)n4[B-]3(F)F)C=C2)c(Cl)c1O [BODIPY-DIF-3],suppressed in a dose-dependent manner,13.2,dose-dependently suppressed cell growth,12.2,dose-dependently suppressed cell growth,20,caused many mitochondria to swell in most cells within 1 day,–,–
"CCCCCC(=O)c1c(O)cc(OCCCC)c(Cl)c1O [Bu-DIF-3, 1-(3-chloro-2,6-dihydroxy-4-butoxyphenyl)hexan-1-one]",–,3.2,–,2,–,4.3,the mitochondria in all cells swelled greatly,significantly suppressed,–
"N#CC(C#N)=NNc1cccc(Cl)c1 [CCCP, carbonyl cyanide m-chlorophenylhydrazone, reference compound]",–,5.2,dose-dependently suppressed cell growth,6.8,dose-dependently suppressed cell growth,7.5,Mitochondrial swelling was induced in most HeLa cells,–,significantly suppressed
"CCCCCC(=O)c1c(O)cc(OC)c(Cl)c1O [DIF-3, 1-(3-chloro-2,6-dihydroxy-4-methoxyphenyl)hexan-1-one]",–,14.5,–,15.5,–,> 20,the mitochondria in all cells swelled greatly,significantly suppressed,–
